Reference: patent US11866431B2, “Bicyclic compounds” (Vivace Therapeutics, Inc., priority 2018, dated 2024)
pIC50: −log10 of the molar value.

What follows are compounds tested on 8XTBD luciferase reporter (YAP reporter) in HEK293T cells (assay: YAP Reporter Assay). Details: Homo sapiens, HEK-293T, 24 h, read-out: Firefly Luciferase IC50 (μM).
Assay type: cell-based
How it was run: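 Dual-luciferase read-out after 24 h compound exposure at 37° C, 5% CO2; IC50 and maximum inhibition given separately for 8XTBD-firefly and TK-renilla signals. Stable HEK293T reporter cells, 3×10^3/well, received 10-point 1:3 series starting 3 μM final, in quadruplicate.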

Structure (SMILES)	IC50 [µM]
C[C@H](NC(=O)c1ccc2c(-c3ccc(C(F)(F)F)cc3)cccc2c1)C1CN(CCO)C1 [Compound 140, N-[(1S)-1-[1-(2-hydroxyethyl)azetidin-3-yl]ethyl]-5-[4-(trifluoromethyl)phenyl]naphthalene-2-carboxamide]	0.1 to 1

Same assay, conditions: Homo sapiens, HEK-293T; HEK293T cells stably transfected with 8XTBD luciferase reporter and pRLTK; 24-hr incubation; top concentration 3 μM; read-out: Firefly Luciferase IC50

Structure (SMILES)	pIC50
C[C@@H](NC(=O)c1ccc2c(-c3ccc(C(F)(F)F)cc3)cccc2c1)C1CN(CC(F)F)C1 [Compound 137, (R)—N-(1-(1-(2,2-difluoroethyl)azetidin-3-yl)ethyl)-5-(4-(trifluoromethyl)phenyl)-2-naphthamide]	6.00 to 7.00
C[C@@H](NC(=O)c1cnc2c(-c3ccc(C(F)(F)F)cc3)cccc2c1)C1(O)CNC1 [Compound 141, (R)—N-(1-(3-hydroxyazetidin-3-yl)ethyl)-8-(4-(trifluoromethyl)phenyl)quinoline-3-carboxamide]	5.52 to 6.00
CC(C)N1CC([C@H](C)NC(=O)c2ccc3c(-c4ccc(C(F)(F)F)cc4)cccc3c2)C1 [Compound 143, N-[(1S)-1-(1-isopropylazetidin-3-yl)ethyl]-5-[4-(trifluoromethyl)phenyl]naphthalene-2-carboxamide]	5.52 to 6.00
C[C@@H](NC(=O)c1ccc2c(-c3ccc(C(F)(F)F)cc3)cccc2c1)C1CN(CCF)C1 [Compound 144, (R)—N-(1-(1-(2-fluoroethyl)azetidin-3-yl)ethyl)-5-(4-(trifluoromethyl)phenyl)-2-naphthamide]	6.00 to 7.00
CCN1CC([C@@H](C)NC(=O)c2ccc3c(-c4ccc(C(F)(F)F)cc4)cccc3c2)C1 [Compound 148, N-[(1R)-1-(1-Ethylazetidin-3-yl)ethyl]-5-[4-(trifluoromethyl)phenyl]naphthalene-2-carboxamide]	6.00 to 7.00
CCN1CC([C@H](C)NC(=O)c2ccc3c(-c4ccc(C(F)(F)F)cc4)cccc3c2)C1 [Compound 149, N-[(1S)-1-(1-Ethylazetidin-3-yl)ethyl]-5-[4-(trifluoromethyl)phenyl]naphthalene-2-carboxamide]	6.00 to 7.00
CCN1CC([C@@H](C)NC(=O)c2cnc3c(-c4ccc(C(F)(F)F)cc4)cccc3c2)C1 [Compound 150, N-[(1R)-1-(1-Ethylazetidin-3-yl)ethyl]-8-[4-(trifluoromethyl)phenyl]quinoline-3-carboxamide]	5.52 to 6.00
C[C@@H](NC(=O)c1ccc2c(-c3ccc(C(F)(F)F)cc3)cccc2c1)C1CN(C)C1 [Compound 153, N-[(1R)-1-(1-methylazetidin-3-yl)ethyl]-5-[4-(trifluoromethyl)phenyl]naphthalene-2-carboxamide]	6.00 to 7.00
C[C@H](NC(=O)c1ccc2c(-c3ccc(C(F)(F)F)cc3)cccc2c1)C1(O)CNC1 [Compound 155, (S)—N-(1-(3-hydroxyazetidin-3-yl)ethyl)-5-(4-(trifluoromethyl)phenyl)-2-naphthamide]	6.00 to 7.00
C[C@@H](NC(=O)c1cnc2c(-c3ccc(C(F)(F)F)cc3)cccc2c1)C1CN(C)C1 [Compound 156, N-[(1R)-1-(1-methylazetidin-3-yl)ethyl]-8-[4-(trifluoromethyl)phenyl]quinoline-3-carboxamide]	6.00 to 7.00
C[C@@H](NC(=O)c1cnc2c(-c3ccc(C(F)(F)F)cc3)cccc2c1)C1CNC1 [Compound 158, N-[(1R)-1-(Azetidin-3-yl)ethyl]-8-[4-(trifluoromethyl)phenyl]quinoline-3-carboxamide]	6.00 to 7.00
O=C(NC(CCO)CCO)c1cnc2c(-c3ccc(C(F)(F)F)cc3)cccc2c1 [Compound 160, N-(1,5-dihydroxypentan-3-yl)-8-(4-(trifluoromethyl)phenyl)quinoline-3-carboxamide]	5.52 to 6.00
O=C(NC(CCO)CCO)c1ccc2c(-c3ccc(C(F)(F)F)cc3)cccc2c1 [Compound 161, N-(1,5-dihydroxypentan-3-yl)-5-(4-(trifluoromethyl)phenyl)-2-naphthamide]	6.00 to 7.00
O=C(N[C@H](CO)c1ccccn1)c1ccc2c(-c3ccc(C(F)(F)F)cc3)cccc2c1 [Compound 162, N-[(1S)-2-hydroxy-1-(2-pyridyl)ethyl]-5-[4-(trifluoromethyl)phenyl]naphthalene-2-carboxamide]	5.52 to 6.00
O=C(N[C@@H](CO)c1ccccn1)c1ccc2c(-c3ccc(C(F)(F)F)cc3)cccc2c1 [Compound 163, N-[(1R)-2-hydroxy-1-(2-pyridyl)ethyl]-5-[4-(trifluoromethyl)phenyl]naphthalene-2-carboxamide]	> 7.00
O=C(N[C@@H](CCO)c1ccccn1)c1ccc2c(-c3ccc(C(F)(F)F)cc3)cccc2c1 [Compound 164, (S)—N-(3-hydroxy-1-(pyridin-2-yl)propyl)-5-(4-(trifluoromethyl)phenyl)-2-naphthamide]	> 7.00
O=C(N[C@H](CCO)c1ccccn1)c1ccc2c(-c3ccc(C(F)(F)F)cc3)cccc2c1 [Compound 165, (R)—N-(3-hydroxy-1-(pyridin-2-yl)propyl)-5-(4-(trifluoromethyl)phenyl)-2-naphthamide]	5.52 to 6.00

Structure (SMILES)	pIC50
C[C@@H](CCO)NC(=O)c1ccc2c(-c3ccc(C(F)(F)F)cc3)cccc2c1 [Compound 166, N-[(1S)-3-hydroxy-1-methyl-propyl]-5-[4-(trifluoromethyl)phenyl]naphthalene-2-carboxamide]	> 7.00
C[C@H](CCO)NC(=O)c1ccc2c(-c3ccc(C(F)(F)F)cc3)cccc2c1 [Compound 167, N-[(1R)-3-hydroxy-1-methyl-propyl]-5-[4-(trifluoromethyl)phenyl]naphthalene-2-carboxamide]	> 7.00
C[C@@H](CCN)NC(=O)c1ccc2c(-c3ccc(C(F)(F)F)cc3)cccc2c1 [Compound 168, (S)—N-(4-aminobutan-2-yl)-5-(4-(trifluoromethyl)phenyl)-2-naphthamide]	> 7.00
C[C@H](CCN)NC(=O)c1ccc2c(-c3ccc(C(F)(F)F)cc3)cccc2c1 [Compound 169, (R)—N-(4-aminobutan-2-yl)-5-(4-(trifluoromethyl)phenyl)-2-naphthamide]	6.00 to 7.00
O=C(NCc1ccnc(CF)n1)c1ccc2c(-c3ccc(C(F)(F)F)cc3)cccc2c1 [Compound 170, N-((2-(fluoromethyl)pyrimidin-4-yl)methyl)-5-(4-(trifluoromethyl)phenyl)-2-naphthamide]	> 7.00
O=C(NCc1ccnc(COc2ccon2)n1)c1ccc2c(-c3ccc(C(F)(F)F)cc3)cccc2c1 [Compound 171, N-((2-((Isoxazol-3-yloxy)methyl)pyrimidin-4-yl)methyl)-5-(4-(trifluoromethyl)phenyl)-2-naphthamide]	6.00 to 7.00
O=C(NCc1ccnc(COc2c(F)cccc2F)n1)c1ccc2c(-c3ccc(C(F)(F)F)cc3)cccc2c1 [Compound 172, N-((2-((2,6-difluorophenoxy)methyl)pyrimidin-4-yl)methyl)-5-(4-(trifluoromethyl)phenyl)-2-naphthamide]	5.52 to 6.00
C[C@@H](NC(=O)c1ccc2c(-c3ccc(C(F)(F)F)cc3)cccc2c1)c1cccc2nc[nH]c12 [Compound 173, N-[(1R)-1-(3H-benzimidazol-4-yl)ethyl]-5-[4-(trifluoromethyl)phenyl]naphthalene-2-carboxamide]	6.00 to 7.00
C[C@H](NC(=O)c1ccc2c(-c3ccc(C(F)(F)F)cc3)cccc2c1)c1cccc2nc[nH]c12 [Compound 174, N-[(1S)-1-(3H-benzimidazol-4-yl)ethyl]-5-[4-(trifluoromethyl)phenyl]naphthalene-2-carboxamide]	> 7.00
C[C@@H](NC(=O)c1ccc2c(-c3ccc(C(F)(F)F)cc3)cccc2c1)c1cccc2ccsc12 [Compound 176, N-[(1R)-1-(benzothiophen-7-yl)ethyl]-5-[4-(trifluoromethyl)phenyl]naphthalene-2-carboxamide]	6.00 to 7.00
C[C@@H](NC(=O)c1ccc2c(-c3ccc(C(F)(F)F)cc3)cccc2c1)c1cccc2ccc(=O)[nH]c12 [Compound 177, N-[(1R)-1-(2-oxo-1H-quinolin-8-yl)ethyl]-5-[4-(trifluoromethyl)phenyl]naphthalene-2-carboxamide]	> 7.00
C[C@H](NC(=O)c1ccc2c(-c3ccc(C(F)(F)F)cc3)cccc2c1)c1cccc2ccc(=O)[nH]c12 [Compound 178, N-[(1S)-1-(2-oxo-1H-quinolin-8-yl)ethyl]-5-[4-(trifluoromethyl)phenyl]naphthalene-2-carboxamide]	5.52 to 6.00
N#Cc1nccc(CNC(=O)c2ccc3c(-c4ccc(C(F)(F)F)cc4)cccc3c2)n1 [Compound 179, N-((2-cyanopyrimidin-4-yl)methyl)-5-(4-(trifluoromethyl)phenyl)-2-naphthamide]	> 7.00
O=C(NCc1ccnc(Cl)n1)c1ccc2c(-c3ccc(C(F)(F)F)cc3)cccc2c1 [Compound 180, N-((2-chloropyrimidin-4-yl)methyl)-5-(4-(trifluoromethyl)phenyl)-2-naphthamide]	6.00 to 7.00
O=C(NCC/C=C/COc1ccon1)c1ccc2c(-c3ccc(C(F)(F)F)cc3)cccc2c1 [Compound 181, N-[(E)-5-isoxazol-3-yloxypent-3-enyl]-5-[4-(trifluoromethyl)phenyl]naphthalene-2-carboxamide]	> 7.00
C[C@@H](NC(=O)c1ccc2c(-c3ccc(C(F)(F)F)cc3)cccc2c1)c1cccc2cn[nH]c12 [Compound 182, N-[(1R)-1-(1H-indazol-7-yl)ethyl]-5-[4-(trifluoromethyl)phenyl]naphthalene-2-carboxamide]	> 7.00
C[C@H](NC(=O)c1ccc2c(-c3ccc(C(F)(F)F)cc3)cccc2c1)c1cccc2cn[nH]c12 [Compound 183, N-[(1S)-1-(1H-indazol-7-yl)ethyl]-5-[4-(trifluoromethyl)phenyl]naphthalene-2-carboxamide]	5.52 to 6.00
